Measurements taken from US4645774A, “Aminoethoxybenzylalcohol derivatives, process for their preparation and pharmaceutical compositions containing them” (Richter Gedeon Vegyeszeti Gyar Rt, priority 1982, dated 1987).

Columns and labels:
hexobarbital oxidase = assay: in vivo measurement of hexobarbital oxidase activity (hexobarbital narcosis period); parameters: species or system rat (female Hann.-Wistar); conditions: 40 mg./kg. oral single dose, n=10, mean ± S.E.; for Narcosis period in % of the control, 1 hour: hexobarbital sodium 60 mg./kg. i.v. 1 hour after; for Narcosis period in % of the control, 24 hours: hexobarbital sodium 60 mg./kg. i.v. 24 hours after
Method: The enzyme-inducing potency of the new compounds according to the invention was determined by several methods. One of these methods was the in vivo measurement of hexobarbital oxidase activity.
To determine the change of hexobarbital oxidase activity female Hann.-Wistar rats, each weighing 50 to 60 g. were treated orally with a single 40 mg./kg. dose of the active agent. One and 24 hours after the administration of the active agent, respectively, the animals were narcotized with a 60 mg./kg. i.v. dose of hexobarbital sodium, and the time elapsed until complete wakening from ceasing of the righting reflex was measured (Noordhoex J.: Eur. J. Pharmacol, 3, 242, 1968). As a reference compound phenobarbital was used. The data were recorded, and the mean values, the standard errors, as well as the percentage increase with respect to the control were calculated for each group. Abbreviations:
S.E.=standard error of the mean value,
The control group was treated with a placebo. [formula] A=α-ethyl-α-(3-trifluoromethylphenyl)-4-[2-(piperidin-l-yl)-eth oxy]-benzylalcohol;

acute toxicity = assay: acute toxicity; parameters: species or system rat (H-Wistar, both sexes); conditions: rat, in vivo, po; for mortality at 336 h: 500 mg./kg. p.o. single dose, 14 days observation, n=10, read-out: Perished animals
Method: The acute toxicity of the compounds of the formula (I) was determined on H-Wistar rats of both sexes, each weighing 160 to 180 g. The compounds were administered in a single 500 mg./kg. dose, orally.

liver = assay: Relative weight of liver after treatment; format: in vivo, rat (female H. Wistar); conditions: 40 mg./kg. single oral dose, 24 hours; control 4.3 ± 0.17; ± S.E.
Method: (§1) The enzyme inducing activity of the compounds of the formula (I) was further tested by determining the activity of the polysubstrate monooxygenase enzyme system of the liver after treatment with a placebo and the compounds according to the invention, respectively. Female H. Wistar rats each weighing 50 to 60 g. were administered a single 40 mg./kg. dose of the test compounds, orally. 24 hours after treatment the animals were decapitated and the livers were eliminated. […] The cytochrome P-450 concentration was determined from the carbon monoxide differential spectrum of a reduced microsomal suspension (Omura T. et al.: J. Biol. Chem. 239, 2370 (1964)), the quantity of cytochrome b-5 was determined from a NADH differential spectrum (Raw J. et al.: J. Biol. Chem. 234, 1867 (1959)). The activity of NADPH: ferricytochrome C (P-450) reductase (E.C. 1.6.2.4) was measured according to Williams C. […] The activity of aniline hydroxylase was determined according to Chhabra R. S. et al.: Toxicol. […] Pharmacol., 22, 50 (1972) by measuring the velocity of p-aminophenol formation, while the […] activity was determined on the basis of the quantity of formaldehyde formed, following the method of Gourlay G. K. et al.: Biochem. Pharmacol., 27, 965 (1978). […]

Microsomal protein = Microsomal protein of the liver after treatment; format: in vivo, rat (female H. Wistar); conditions: 40 mg./kg. single oral dose, 24 hours; control 29.3 ± 1.01; ± S.E.
Method: as §1

Cytochrome b-5 = Cytochrome b-5 quantity from NADH differential spectrum; format: in vivo, rat (female H. Wistar); conditions: 40 mg./kg. single oral dose, 24 hours; control 8.6 ± 0.43; ± S.E.
Method: as §1

Cytochrome P-450 = Cytochrome P-450 concentration from carbon monoxide differential spectrum; format: in vivo, rat (female H. Wistar); conditions: 40 mg./kg. single oral dose, 24 hours; control 12.8 ± 0.63; ± S.E.
Method: as §1

[1] = test system: NADPH: ferricytochrome C (P-450) reductase (E.C. 1.6.2.4); assay: activity of NADPH: ferricytochrome C (P-450) reductase; format: in vivo, rat (female H. Wistar); conditions: 40 mg./kg. single oral dose, 24 hours; control 4686 ± 286.2; ± S.E.
Method: as §1

aniline hydroxylase = assay: activity of aniline hydroxylase (p-aminophenol formation); format: in vivo, rat (female H. Wistar); conditions: 40 mg./kg. single oral dose, 24 hours; control 20.3 ± 0.88; ± S.E.
Method: as §1

[2] = test system: aminopyridine demethylase; assay: aminopyridine demethylase activity (formaldehyde formed); format: in vivo, rat (female H. Wistar); conditions: 40 mg./kg. single oral dose, 24 hours; control 254.8 ± 7.47; ± S.E.
Method: as §1

mice and rats = format: in vivo; conditions: orally, even in a dose of 40 mg./kg.
Text: The central nervous activities of the compounds according to the invention were examined on mice and rats with the following methods: electroshock (Swinyard, E. A., Brown, W. C., Goodman, L. S.: J. Pharmacol. Exp. Ther. 106, 319 (1952)), metrazole spasm (Everett, G. M., Richards, R. K.: J. Pharmacol. Exp. Ther. 81, 402 (1944)), thiosemicarbazide spasm ( Da Venzo, J. P., Greig, M. E., Cormin, M. A.: Amer. J. Physiol. 201, 833 (1961)), strychnine spasm (Kerley, T. L., Richards, A. G., Begley, R. W., Abreu, B. B., Wesver, L. C.: J. Pharmacol. Exp. Ther. 132, 360 (1961)), nicotine spasm (Stone, C. A., Mecklenburg, K. L., Torhans, M. L.: Arch. Int. Pharmacodyn. 117, 419 (1958)), rotarod test (Kinnard, W. C., Carr, C. J.: J. Pharmacol. Expt. Ther. 121, 354 (1957)), physostigmine lethality preventing effect (Nose, T., Kojima, M.: Europ. J. Pharmacol. 10, 83 (1970)), yohimbine potentiation effect (Quinton, R. M.: Brit. J. Pharmacol. 21, 51 (1963)), and analgesic activity (Bianchi, G., Francheschini, J.: Brit. J. Pharm. Chemother. 9, 280 (1954)).
As a reference substance, phenobarbital was used. […].

Row | Compound | Narcosis period in % of the control, 1 hour (hexobarbital oxidase) [%] | Narcosis period in % of the control, 24 hours (hexobarbital oxidase) [%] | mortality at 336 h (acute toxicity) [%] | Relative weight of liver (g./100 g. of body weight), % of control (liver) [%] | Microsomal protein (mg./g. of liver), % of control (Microsomal protein) [%] | Cytochrome b-5 (nmoles/g. of liver), % of control (Cytochrome b-5) [%] | Cytochrome P-450 (nmoles/g. of liver), % of control (Cytochrome P-450) [%] | c(P-450)reductase (nmoles/g. of liver/min.), % of control [1] [%] | Aniline hydroxylase (nmoles/g. of liver/min.), % of control (aniline hydroxylase) [%] | Aminopyridine demethylase (nmoles/g./min.), % of control [2] [%] | LD50 (acute toxicity; footnote x of Table 3) [mg/kg] | central nervous activities (mice and rats)
1 | CCC(O)(c1ccc(OCCN2CCCCC2)cc1)c1cccc(C(F)(F)F)c1 (stereo not drawn) [A, α-Ethyl-α-(3-trifluoromethylphenyl)-4-[2-(piperidin-1-yl)-ethoxy]-benzylalcohol] | 177 ± 5.0 | 49 ± 0.7 | 0 | – | – | – | – | – | – | – | – | –
2 | CCC(O)(c1ccc(OCCN(C)C)cc1)c1cccc(C(F)(F)F)c1 (stereo not drawn) [B, α-ethyl-α-(3-trifluoromethylphenyl)-4-[2-(dimethylamino)-ethoxy]-benzylalcohol] | 180 ± 10.0 | 49 ± 3.3 | 0 | – | – | – | – | – | – | – | – | –
3 | CCC(O)(c1ccc(OCCN2CCCC2)cc1)c1ccccc1OC (stereo not drawn) [C, α-Ethyl-α-(2-methoxyphenyl)-4-[2-(pyrrolidin-1-yl)-ethoxy]-benzylalcohol] | 113 ± 12.0 | 57 ± 7.8 | 0 | – | – | – | – | – | – | – | – | –
4 | CCC(O)(c1ccc(F)cc1)c1ccc(OCCN2CCCCC2)cc1 (stereo not drawn) [D, α-Ethyl-α-(4-fluorophenyl)-4-[2-(piperidin-1-yl)-ethoxy]-benzylalcohol] | 120 ± 4.2 | 53 ± 3.7 | 0 | 122 ± 4.9 | 111 ± 4.2 | 116 ± 4.8 | 163 ± 8.7 | 178 ± 16.2 | 131 ± 5.9 | 123 ± 7.8 | – | –
5 | CCC1(c2ccccc2)C(=O)NC(=O)NC1=O [phenobarbital, reference compound] | 250 ± 15.8 | 60 ± 7.3 | – | – | – | – | – | – | – | – | 245 | strong anticonvulsive muscle-coordinating and sedative effects
